Measurements taken from ChEMBL document CHEMBL5325435, “Optimization of an α-aminonaphthylmethylphosphonic acid inhibitor of purple acid phosphatase using rational structure-based design approaches” (Eur J Med Chem, 2023).

Assay: Competitive inhibition of pig uterine fluid fully reduced PAP using p-NPP as substrate measured at 4.9 by UV-Vis spectrophotometric analysis
Format: tissue-based, Sus scrofa

Row | Ki [µM] | SMILES
1 | 0.55 | CCCCCCCCCCCCCCCCOCC(=O)NC(c1ccccc1)P(=O)(O)O (racemic)
2 | 0.186 | CCCCCCCCCCCCCCCCCC(=O)NC(c1ccc(OC)cc1)P(=O)(O)O (racemic)
3 | 56 | CCCCCCCCOCC(=O)NC(c1ccccc1)P(=O)(O)O (racemic)
4 | 0.168 | CCCCCCCCCCCCCCCCCC(=O)NC(c1ccccc1)P(=O)(O)O (racemic)
5 | 0.61 | CCCCCCCCCCCCCCCC(=O)NC(c1ccc(OCC)cc1)P(=O)(O)O (racemic)
6 | 31 | CCCCCCCCCCCC(=O)NC(c1ccccc1)P(=O)(O)O (racemic)
7 | 6 | CCCCCCCCCCCCCCCCCC(=O)NC(c1ccc(OCC)cc1)P(=O)(O)O (racemic)
8 | 19 | CCCCCCCCCC(=O)NC(c1ccccc1)P(=O)(O)O (racemic)
9 | 3 | CCCCCCCCCCCCCC(=O)NC(c1ccc(OCC)cc1)P(=O)(O)O (racemic)
10 | 0.32 | CCCCCCCCCCCCCC(=O)NC(c1ccccc1)P(=O)(O)O (racemic)
11 | 0.32 | CCCCCCCCCCCCCCCC(=O)NC(c1ccccc1)P(=O)(O)O (racemic)
12 | 3 | CCCCCCCCCCCC(=O)NC(c1ccc(OC)cc1)P(=O)(O)O (racemic)
13 | 0.34 | CCCCCCCCCCCCCCCC(=O)NC(c1ccc(OC)cc1)P(=O)(O)O (racemic)
14 | 0.4 | CCCCCCCCCCCCCC(=O)NC(c1ccc(OC)cc1)P(=O)(O)O (racemic)
15 | 0.27 | CCCCCCCCCCCCCCCCOCC(=O)NC(c1ccc(OC)cc1)P(=O)(O)O (racemic)
